Experimental data: patent US20260217701A1, “SELECTIVE BET INHIBITORS AND USES THEREOF” (Tay Therapeutics Limited, priority 2022, published 2026)
Several values for one entry are separate records, joined by “and”; a condition that tells them apart may be missing. Identical values can stand only once.

Tested on: imiquimod-induced psoriasis
Assay: Imiquimod-induced psoriasis model
Type: in vivo, mice
Design: Spleen Weight / Spleen Weight Ratio: unit not given here
Settings: for Mean scores of the presence of erythema on the skin of animals at the area of induction of psoriasis / Mean scores of the presence of induration on the skin of animals at the area of induction of psoriasis / Mean scores of the presence of peeling on the skin of animals at the area of induction of psoriasis: mean ± SEM
Procedure, shortened: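 Psoriasis-like dermatitis induced in mice by daily dorsal imiquimod cream (Days 1–14); dosing with Compound A (5% DMSO/40% PEG-400/55% saline vehicle) began Day 8. Read-outs: summed 0–4 scores for erythema, induration and peeling daily to Day 15, plus terminal spleen ratio, behaviour and serum cytokines.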

[1] = IMI + 1 mg/kg, D8 (before start of treatment)
[2] = IMI + 3 mg/kg, D8 (before start of treatment)

For `COCCn1cc(-c2ccccc2)c(-c2cn(C)c(=O)c3[nH]c(-c4cnn(C(F)(F)F)c4)cc23)cc1=O` [Compound B, 4-(1-(2-methoxyethyl)-2-oxo-5-phenyl-1,2-dihydropyridin-4-yl)-6-methyl-2-(1-(trifluoromethyl)-1H-pyrazol-4-yl)-1,6-dihydro-7H-pyrrolo[2,3-c]pyridin-7-one], the “Spleen Weight Ratio” value (IMI-psoriasis model, mice, 10 mg/kg, individual animals) was 1026.10 and 1000.89 and 999.24 and 691.05 and 654.43 and 926.75 and 782.83 and 888.53, the Spleen Weight Ratio (day 15, 1, 3, 10 mg/kg) was “dose-dependent decrease” and the “efficacy on the treatment of psoriasis” value (highest tested dose of 10 mg/kg) was “very good efficacy”. For the same compound, the “Mean scores of the presence of erythema on the skin of animals at the area of induction of psoriasis” value (“Mean scores of the presence of erythema” for short) [1] was 2.1 ± 0.1, the “Mean scores of the presence of induration on the skin of animals at the area of induction of psoriasis” value [1] was 2.5 ± 0.2 and the “Mean scores of the presence of peeling on the skin of animals at the area of induction of psoriasis” value (“Mean scores of the presence of peeling” below) [1] was 2.1 ± 0.1. For the same compound, the “Mean scores of the presence of erythema” value (IMI + 1 mg/kg, D9) was 1.8 ± 0.2, the “Mean scores of the presence of induration on the skin of animals at the area of induction of psoriasis” value (IMI + 1 mg/kg, D9) was 2.5 ± 0.2 and the “Mean scores of the presence of peeling” value (IMI + 1 mg/kg, D9) was 2.5 ± 0.3. The “Mean scores of the presence of erythema” value (IMI + 1 mg/kg, D10) was 1.8 ± 0.2, the “Mean scores of the presence of induration on the skin of animals at the area of induction of psoriasis” value (IMI + 1 mg/kg, D10) was 2.3 ± 0.2 and the “Mean scores of the presence of peeling” value (IMI + 1 mg/kg, D10) was 2.0 ± 0.2. For the same compound, the “Mean scores of the presence of erythema” value (IMI + 1 mg/kg, D11) was 2.3 ± 0.2, the “Mean scores of the presence of induration on the skin of animals at the area of induction of psoriasis” value (IMI + 1 mg/kg, D11) was 2.3 ± 0.3 and the “Mean scores of the presence of peeling” value (IMI + 1 mg/kg, D11) was 2.0 ± 0.1. For the same compound, the “Mean scores of the presence of erythema” value (IMI + 1 mg/kg, D12) was 1.8 ± 0.2, the “Mean scores of the presence of induration on the skin of animals at the area of induction of psoriasis” value (IMI + 1 mg/kg, D12) was 2.0 ± 0.0 and the “Mean scores of the presence of peeling” value (IMI + 1 mg/kg, D12) was 1.9 ± 0.1. The “Mean scores of the presence of erythema” value (IMI + 1 mg/kg, D13) was 1.5 ± 0.3, the “Mean scores of the presence of induration on the skin of animals at the area of induction of psoriasis” value (IMI + 1 mg/kg, D13) was 2.0 ± 0.0 and the “Mean scores of the presence of peeling” value (IMI + 1 mg/kg, D13) was 2.0 ± 0.3. The “Mean scores of the presence of erythema” value (IMI + 1 mg/kg, D14) was 1.8 ± 0.3, the “Mean scores of the presence of induration on the skin of animals at the area of induction of psoriasis” value (IMI + 1 mg/kg, D14) was 2.0 ± 0.0 and the “Mean scores of the presence of peeling” value (IMI + 1 mg/kg, D14) was 1.9 ± 0.2. The “Mean scores of the presence of erythema” value (IMI + 1 mg/kg, D15) was 1.5 ± 0.2, the “Mean scores of the presence of induration on the skin of animals at the area of induction of psoriasis” value (IMI + 1 mg/kg, D15) was 1.9 ± 0.1 and the “Mean scores of the presence of peeling” value (IMI + 1 mg/kg, D15) was 1.8 ± 0.3. For the same compound, the “Mean scores of the presence of erythema” value [2] was 2.4 ± 0.2, the “Mean scores of the presence of induration on the skin of animals at the area of induction of psoriasis” value [2] was 2.6 ± 0.2 and the “Mean scores of the presence of peeling” value [2] was 2.6 ± 0.3. The “Mean scores of the presence of erythema” value (IMI + 3 mg/kg, D9) was 1.9 ± 0.3, the “Mean scores of the presence of induration on the skin of animals at the area of induction of psoriasis” value (IMI + 3 mg/kg, D9) was 2.0 ± 0.0 and the “Mean scores of the presence of peeling” value (IMI + 3 mg/kg, D9) was 2.1 ± 0.0. The “Mean scores of the presence of erythema” value (IMI + 3 mg/kg, D10) was 1.6 ± 0.2, the “Mean scores of the presence of induration on the skin of animals at the area of induction of psoriasis” value (IMI + 3 mg/kg, D10) was 2.1 ± 0.1 and the “Mean scores of the presence of peeling” value (IMI + 3 mg/kg, D10) was 2.0 ± 0.2. The “Mean scores of the presence of erythema” value (IMI + 3 mg/kg, D11) was 1.9 ± 0.2, the “Mean scores of the presence of induration on the skin of animals at the area of induction of psoriasis” value (IMI + 3 mg/kg, D11) was 1.7 ± 0.2 and the “Mean scores of the presence of peeling” value (IMI + 3 mg/kg, D11) was 1.9 ± 0.1. For the same compound, the “Mean scores of the presence of erythema” value (IMI + 3 mg/kg, D12) was 1.9 ± 0.1, the “Mean scores of the presence of induration on the skin of animals at the area of induction of psoriasis” value (IMI + 3 mg/kg, D12) was 1.9 ± 0.1 and the “Mean scores of the presence of peeling” value (IMI + 3 mg/kg, D12) was 1.6 ± 0.2. The “Mean scores of the presence of erythema” value (IMI + 3 mg/kg, D13) was 1.5 ± 0.2, the “Mean scores of the presence of induration on the skin of animals at the area of induction of psoriasis” value (IMI + 3 mg/kg, D13) was 1.9 ± 0.1 and the “Mean scores of the presence of peeling” value (IMI + 3 mg/kg, D13) was 1.6 ± 0.2. The “Mean scores of the presence of erythema” value (IMI + 3 mg/kg, D14) was 1.3 ± 0.2, the “Mean scores of the presence of induration on the skin of animals at the area of induction of psoriasis” value (IMI + 3 mg/kg, D14) was 1.9 ± 0.1 and the “Mean scores of the presence of peeling” value (IMI + 3 mg/kg, D14) was 1.5 ± 0.1. The “Mean scores of the presence of erythema” value (IMI + 3 mg/kg, D15) was 0.9 ± 0.2 and the “Mean scores of the presence of induration on the skin of animals at the area of induction of psoriasis” value (IMI + 3 mg/kg, D15) was 1.4 ± 0.2.
